Experimental data from patent US20240279202A1 (NURIX THERAPEUTICS, INC., priority 2021, published 2024).

What was measured:
[1] = Mouse PK analysis (blood/plasma concentration after oral administration); type: in vivo; conditions: mouse; mice, oral, plasma
Protocol: Compounds 1, 3, 7, and 42 were formulated and administered at 90 mg/kg to mice by oral gavage (PO). Blood was collected at defined time points (after 1, 2, and 6 hours) after compounds administration to determine PK parameters. Concentration increased through 6 hours. Six hours later mice were sacrificed and splenocytes were isolated and used to prepare protein lysates. Total protein levels were determined in the lysates using the BCA assay according to standard methods. Equal amounts of protein were then analyzed by Western blot to determine the level of ITK expression in each sample. ITK band intensities were measured using Alpha View software and the percent of ITK remaining in each test animal was determined relative to the mean of ITK levels in vehicle control samples.
Compounds 16, 17, and 18 were administered to mice orally. After 6 hours or 24 hours, splenocytes cells were harvested. ITK was evaluated by Western blotting. Plasma concentrations were determined by LC/MS/MS. Plasma samples were protein precipitated by addition of 100 μl of acetonitrile containing 50 ng/ml of internal standard. The resulting mixture was vortexed and centrifuged at 4000 RPM for 5 minutes. An aliquot of the resultant supernatant (75 μl) was added to 75 μl of 0.1% formic acid in water to constitute the final sample for injection. Samples were injected on a Shimadzu Exion LC Binary Gradient AD Pump HLPC system connected to a Sciex QTRAP 6500+mass spectrometer. Five μl of sample was injected onto a Waters Acquity UPLC BEH C18 column 130A (2.1×30 mm, […]) at 40° C. utilizing a flow rate of 700 μl/minute. Mobile Phase A was 0.1% formic acid in water and mobile phase B was 0.1% formic acid in acetonitrile. A linear gradient of 15-95% B over 1.0 minute was used. The mass spectrometer was operated in positive ion electrospray mode with multiple reaction monitoring for maximum sensitivity. Sciex Analyst software (version 1.6.3) was used for LC/MS/MS instrument control and acquisition. Compound concentration was determined against a standard curve of internal standard versus compound peak area ratio. Noncompartmental PK parameters were determined using […] software (version 8.2.0.4383) from Certara. Plasma concentrations from the LC/MS/MS analyses, dose, route of administration, and desired units were utilized for PK parameter calculations. […] FIG. 4C provides the concentration over time of compound 17 following in vivo oral administration in the 6 hour and 24 hour assays.
Cmax, Tmax and AUClast were all calculated using a WinNonLin Phoenix 64 v 8.2.0.4383. Using non-compartmental analysis, Tmax, Cmax and AUClast were determined as follows: • Tmax—Time of maximum observed concentration. • Cmax—Maximum observed concentration, occurring at time Tmax, as defined above. • AUClast—Area under the curve from the time of dosing to the time of the last measurable (positive) concentration (Tlast).

ITK = molecular target: T1, ITK (Homo sapiens, UniProt Q08881); test: ITK degradation HiBiT assay; type: cell-based; design: expressed in transfected cells; host or cells: Molt4 (ATCC CRL-1552), monoclonal clone 1C10, engineered to carry the HiBiT tag; conditions: 4 hrs; for DC50: C-terminal HiBiT-tagged Molt4 cells; for Dmax: MOLT-4, C-terminal HiBiT-tagged Molt4 cells
T1 sequence (Q08881 1-620): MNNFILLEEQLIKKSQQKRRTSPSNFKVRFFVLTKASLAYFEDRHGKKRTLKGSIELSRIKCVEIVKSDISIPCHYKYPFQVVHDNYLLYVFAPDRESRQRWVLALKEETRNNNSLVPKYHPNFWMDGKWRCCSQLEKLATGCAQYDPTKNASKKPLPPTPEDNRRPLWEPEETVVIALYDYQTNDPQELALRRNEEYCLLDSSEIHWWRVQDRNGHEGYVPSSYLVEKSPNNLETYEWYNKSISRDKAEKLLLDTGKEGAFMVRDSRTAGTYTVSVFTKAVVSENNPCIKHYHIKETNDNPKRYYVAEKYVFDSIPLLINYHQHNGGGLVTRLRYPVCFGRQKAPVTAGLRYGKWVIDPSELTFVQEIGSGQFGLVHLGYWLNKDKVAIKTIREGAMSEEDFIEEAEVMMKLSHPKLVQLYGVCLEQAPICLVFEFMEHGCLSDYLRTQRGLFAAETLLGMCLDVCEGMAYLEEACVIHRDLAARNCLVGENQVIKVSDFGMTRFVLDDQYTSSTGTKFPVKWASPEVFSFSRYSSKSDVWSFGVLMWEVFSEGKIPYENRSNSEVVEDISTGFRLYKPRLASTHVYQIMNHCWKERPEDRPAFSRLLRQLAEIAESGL
In short: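 C-terminal HiBiT-tagged Molt4 cells (clone 1C10) treated 4 h at 32° C with an 11-point, 5-fold compound dilution series (0.5% DMSO). HiBiT lytic detection with LgBiT then luminescence read; % ITK remaining versus concentration fit by four-parameter variable-slope model to give DC50 and Dmax.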

SMILES	AUC(0-t) [1] [µM·h]	Cmax [1] [nM]	Tmax [1] [h]	DC50 (ITK) [nM]	Dmax (ITK) [%]
C[C@@]12Cc3[nH]nc(C(=O)Nc4cnn([C@H](c5ccccc5)C5CN(C(=O)C6CN(c7ccc(C8CCC(=O)NC8=O)cn7)C6)C5)c4)c3C[C@@H]1C2(F)F (stereo partly drawn) [Compound 51, (4aS,5aR)-N-(1-((1S)-(1-(1-(5-(2,6-dioxopiperidin-3-yl)pyridin-2-yl)azetidine-3-carbonyl)azetidin-3-yl)(phenyl)methyl)-1H-pyrazol-4-yl)-5,5-difluoro-5a-methyl-1,4,4a,5,5a,6-hexahydrocyclopropa[f]indazole-3-carboxamide]	2.34	720	6	–	–
CC1(C)CCc2c(-c3cc4ccc(C(=O)N5CCC(C6CCN(c7ccc(C8CCC(=O)NC8=O)cn7)CC6)CC5)cc4[nH]3)n[nH]c2C1 (centres unmarked) [Compound 58, 3-(6-(1′-(2-(6,6-dimethyl-4,5,6,7-tetrahydro-1H-indazol-3-yl)-1H-indole-6-carbonyl)-[4,4′-bipiperidin]-1-yl)pyridin-3-yl)piperidine-2,6-dione]	0.18	61	1.5	13.4	69
CC1(C)CCc2c(-c3cc4ccc(C(=O)N5CCC(CN6CCC7(C6)CN(c6ccc(C8CCC(=O)NC8=O)cn6)C7)CC5)cc4[nH]3)n[nH]c2C1 (centres unmarked) [Compound 61, 3-(6-(6-((1-(2-(6,6-dimethyl-4,5,6,7-tetrahydro-1H-indazol-3-yl)-1H-indole-6-carbonyl)piperidin-4-yl)methyl)-2,6-diazaspiro[3.4]octan-2-yl)pyridin-3-yl)piperidine-2,6-dione]	0.08	23	1.5	–	83
C[C@@]12Cc3[nH]nc(C(=O)Nc4cnn(CC5CCN(CC6CCN(C(=O)c7ccc(F)c(N8CCC(=O)NC8=O)c7)CC6)CC5)c4)c3C[C@@H]1C2(F)F [Compound 204]	–	–	–	–	70
C[C@@]12Cc3[nH]nc(C(=O)Nc4cnn(C5CCN(CC6CCN(c7ccc(N8CCC(=O)NC8=O)cc7)CC6)CC5)c4)c3C[C@@H]1C2(F)F [Compound 207, (4aS,5aR)-N-(1-(1-((1-(4-(2,4-dioxotetrahydropyrimidin-1(2H)-yl)phenyl)piperidin-4-yl)methyl)piperidin-4-yl)-1H-pyrazol-4-yl)-5,5-difluoro-5a-methyl-1,4,4a,5,5a,6-hexahydrocyclopropa[f]indazole-3-carboxamide]	–	–	–	0.49	65
C[C@@]12Cc3[nH]nc(C(=O)Nc4cnn(C5CCN(CC6CCN(c7ccc(N8CCC(=O)NC8=O)cc7)C6)CC5)c4)c3C[C@@H]1C2(F)F (stereo partly drawn) [Compound 209, (4aS,5aR)-N-(1-(1-((1-(4-(2,4-dioxotetrahydropyrimidin-1(2H)-yl)phenyl)pyrrolidin-3-yl)methyl)piperidin-4-yl)-1H-pyrazol-4-yl)-5,5-difluoro-5a-methyl-1,4,4a,5,5a,6-hexahydrocyclopropa[f]indazole-3-carboxamide]	–	–	–	0.345	78

Further lines, results first:

AUC(0-t) [1] [µM·h]	Cmax [1] [nM]	Tmax [1] [h]	DC50 (ITK) [nM]	Dmax (ITK) [%]	SMILES
–	–	–	–	52	CC1(C)CCc2c(-c3cc4ccc(C(=O)N5CCC(CN6CCCc7cc(C8CCC(=O)NC8=O)ccc76)CC5)cc4[nH]3)n[nH]c2C1 (centres unmarked) [Compound 199]
–	–	–	36	53	CC1(C)CCc2c(-c3cc4ccc(C(=O)N5CCC(CN6CCN(c7cc(C8CCC(=O)NC8=O)ccn7)CC6)CC5)cc4[nH]3)n[nH]c2C1 (centres unmarked) [Compound 214, 3-{2-[4-({1-[2-(6,6-dimethyl-1,4,5,7-tetrahydroindazol-3-yl)-1H-indole-6-carbonyl]piperidin-4-yl}methyl)piperazin-1-yl]pyridin-4-yl}piperidine-2,6-dione]
–	–	–	0.06	87	CC1(C)CCc2c(-c3cc4cc(F)c(C(=O)N5CCN(CC6CCN(c7ccc(C8CCC(=O)NC8=O)nc7)CC6)CC5)cc4[nH]3)n[nH]c2C1 (centres unmarked) [Compound 216, 3-{5-[4-({4-[2-(6,6-dimethyl-1,4,5,7-tetrahydroindazol-3-yl)-5-fluoro-1H-indole-6-carbonyl]piperazin-1-yl}methyl)piperidin-1-yl]pyridin-2-yl}piperidine-2,6-dione]
–	–	–	3.57	84	CC1(C)CCc2c(-c3cc4ccc(C(=O)N5CCN(CC6CCN(c7ccc(C8CCC(=O)NC8=O)c(F)c7)CC6)CC5)cc4[nH]3)n[nH]c2C1 (centres unmarked) [Compound 221, 3-(4-(4-((4-(2-(6,6-dimethyl-4,5,6,7-tetrahydro-1H-indazol-3-yl)-1H-indole-6-carbonyl)piperazin-1-yl)methyl)piperidin-1-yl)-2-fluorophenyl)piperidine-2,6-dione]
–	–	–	1.42	75	CC1(C)CCc2c(-c3cc4ccc(C(=O)N5CCN(CC6CCN(c7ccc(C8CCC(=O)NC8=O)cc7F)CC6)CC5)cc4[nH]3)n[nH]c2C1 (centres unmarked) [Compound 222, 3-{4-[4-({4-[2-(6,6-dimethyl-1,4,5,7-tetrahydroindazol-3-yl)-1H-indole-6-carbonyl]piperazin-1-yl}methyl)piperidin-1-yl]-3-fluorophenyl}piperidine-2,6-dione]
